Assay results published in patent US20230017786A1, “DEXTR[…] A DISEASE-MODIFYING TREATMENT FOR NEUROPSYCHIATRIC DISORDERS AND DISEASES” (priority 2020, published 2023).
Where a name gives a salt, the structure may show the parent alone.

Tests used:
[1] = molecular target: T1, human NMDA receptor GluN1-GluN2D (Homo sapiens, UniProt O15399+Q05586); test: FLIPR calcium assay, test item effect on L-glutamate CRC, GluN1-GluN2D-CHO; type: cell-based
T1 construct: expressed in transfected cells; host or cells: CHO
Method: (§1) FLIPR determination of intracellular calcium level was used as a read-out for NMDAR activation.
(§2) 400× compound plate was stored at −20° C. until FLIPR experimental day.
(§3) 4× compound plate was generated from 400× compound plate by addition of up to 30 μl/well of compound buffer on FLIPR experimental day.
(§4) A FLIPR system was used to monitor intracellular calcium level in NMDAR cell lines, pre-loaded for 1 hour with Fluo-4, and then washed with assay buffer.
(§5) Y=Bottom+(Top−Bottom)/(1+10^((LogEC50−Log[A])*HillSlope))

[2] = molecular target: T2, human NMDA receptor GluN1-GluN2C (Homo sapiens, UniProt Q05586+Q14957); test: FLIPR calcium assay, test item effect on L-glutamate CRC, GluN1-GluN2C-CHO; type: cell-based
T2 construct: expressed in transfected cells; host or cells: CHO
T2 sequence (Q14957 20-1233, other chains not shown): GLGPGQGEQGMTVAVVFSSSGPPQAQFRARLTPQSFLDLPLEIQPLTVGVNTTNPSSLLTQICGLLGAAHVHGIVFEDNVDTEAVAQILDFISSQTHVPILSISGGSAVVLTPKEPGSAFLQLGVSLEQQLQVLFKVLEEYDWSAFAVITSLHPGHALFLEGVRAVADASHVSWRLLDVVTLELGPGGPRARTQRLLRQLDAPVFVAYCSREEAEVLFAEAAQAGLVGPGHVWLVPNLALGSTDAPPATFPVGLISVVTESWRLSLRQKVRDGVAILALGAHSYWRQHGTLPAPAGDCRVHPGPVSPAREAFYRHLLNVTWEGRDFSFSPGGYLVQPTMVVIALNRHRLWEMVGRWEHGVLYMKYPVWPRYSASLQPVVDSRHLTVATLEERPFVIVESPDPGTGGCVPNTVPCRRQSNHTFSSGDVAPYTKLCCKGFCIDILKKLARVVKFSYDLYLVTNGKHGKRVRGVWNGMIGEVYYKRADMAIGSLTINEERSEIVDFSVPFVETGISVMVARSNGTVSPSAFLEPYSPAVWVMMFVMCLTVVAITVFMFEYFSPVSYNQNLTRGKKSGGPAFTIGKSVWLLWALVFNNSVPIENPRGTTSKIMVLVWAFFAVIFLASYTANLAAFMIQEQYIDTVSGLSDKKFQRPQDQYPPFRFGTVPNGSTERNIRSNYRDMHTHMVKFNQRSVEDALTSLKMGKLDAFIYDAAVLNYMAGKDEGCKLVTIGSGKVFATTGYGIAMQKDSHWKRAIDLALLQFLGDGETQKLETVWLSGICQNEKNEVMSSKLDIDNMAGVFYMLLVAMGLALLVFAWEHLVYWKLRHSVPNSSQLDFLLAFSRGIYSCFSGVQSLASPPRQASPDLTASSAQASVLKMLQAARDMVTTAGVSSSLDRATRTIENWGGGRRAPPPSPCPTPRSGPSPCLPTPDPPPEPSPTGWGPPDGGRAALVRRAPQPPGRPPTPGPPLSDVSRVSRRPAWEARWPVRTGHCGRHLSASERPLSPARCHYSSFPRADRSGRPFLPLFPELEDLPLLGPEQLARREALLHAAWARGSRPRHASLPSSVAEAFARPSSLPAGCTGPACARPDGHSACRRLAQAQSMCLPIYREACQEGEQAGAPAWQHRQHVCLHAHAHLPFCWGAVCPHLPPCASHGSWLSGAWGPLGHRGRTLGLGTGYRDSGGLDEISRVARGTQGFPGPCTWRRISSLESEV
Method: as §1, §2, §3, §4, §5

[3] = molecular target: T3, human NMDA receptor GluN1-GluN2B (Homo sapiens, UniProt Q05586+Q13224); test: cell-based; type: cell-based
T3 construct: expressed in transfected cells; host or cells: CHO
Method: as §1, §2, §3, §4, §5

[4] = molecular target: T4, human NMDA receptor GluN1-GluN2A (Homo sapiens, UniProt Q05586+Q12879); test: FLIPR calcium assay, test item effect on L-glutamate CRC, GluN1-GluN2A-CHO; type: cell-based
T4 construct: expressed in transfected cells; host or cells: CHO
T4 sequence (Q12879 23-1464, other chains not shown): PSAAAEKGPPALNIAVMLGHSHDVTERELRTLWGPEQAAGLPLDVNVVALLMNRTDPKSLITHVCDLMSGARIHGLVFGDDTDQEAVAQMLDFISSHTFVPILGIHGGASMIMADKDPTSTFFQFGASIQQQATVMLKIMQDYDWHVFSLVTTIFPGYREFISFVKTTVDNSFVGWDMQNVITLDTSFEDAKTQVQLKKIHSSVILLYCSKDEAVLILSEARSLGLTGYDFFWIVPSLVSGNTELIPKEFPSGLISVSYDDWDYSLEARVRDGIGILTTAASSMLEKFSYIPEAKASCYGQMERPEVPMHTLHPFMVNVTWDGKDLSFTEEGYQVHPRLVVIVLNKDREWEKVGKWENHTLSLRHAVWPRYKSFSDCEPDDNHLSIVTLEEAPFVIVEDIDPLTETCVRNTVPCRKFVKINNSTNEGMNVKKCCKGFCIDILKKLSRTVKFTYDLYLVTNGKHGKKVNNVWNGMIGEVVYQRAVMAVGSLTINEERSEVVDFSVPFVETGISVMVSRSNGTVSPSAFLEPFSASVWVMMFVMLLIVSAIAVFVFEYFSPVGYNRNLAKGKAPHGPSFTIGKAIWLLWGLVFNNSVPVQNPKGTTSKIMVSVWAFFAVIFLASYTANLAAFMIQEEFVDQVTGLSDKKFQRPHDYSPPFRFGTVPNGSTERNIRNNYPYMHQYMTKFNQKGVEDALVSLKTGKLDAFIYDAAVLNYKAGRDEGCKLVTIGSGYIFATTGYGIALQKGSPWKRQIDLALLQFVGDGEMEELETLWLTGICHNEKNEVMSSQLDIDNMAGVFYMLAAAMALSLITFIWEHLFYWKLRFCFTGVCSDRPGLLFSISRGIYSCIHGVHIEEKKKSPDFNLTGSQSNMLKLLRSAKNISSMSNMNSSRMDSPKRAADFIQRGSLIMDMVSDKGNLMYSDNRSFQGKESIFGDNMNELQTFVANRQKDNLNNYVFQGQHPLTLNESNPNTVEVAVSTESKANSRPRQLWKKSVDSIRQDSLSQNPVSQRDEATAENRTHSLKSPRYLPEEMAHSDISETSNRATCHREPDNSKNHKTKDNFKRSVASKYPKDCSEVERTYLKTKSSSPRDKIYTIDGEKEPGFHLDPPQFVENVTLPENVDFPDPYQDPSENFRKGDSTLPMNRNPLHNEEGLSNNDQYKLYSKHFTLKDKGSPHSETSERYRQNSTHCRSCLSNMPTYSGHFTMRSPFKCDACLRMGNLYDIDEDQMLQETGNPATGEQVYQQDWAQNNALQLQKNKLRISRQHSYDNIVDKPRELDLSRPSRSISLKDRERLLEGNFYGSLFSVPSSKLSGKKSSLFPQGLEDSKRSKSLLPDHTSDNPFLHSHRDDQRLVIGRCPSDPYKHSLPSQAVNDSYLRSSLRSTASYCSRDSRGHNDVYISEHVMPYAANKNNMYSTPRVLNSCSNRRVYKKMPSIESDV
Method: as §1, §2, §3, §4, §5

[5] = tested on: diheteromeric human recombinant NMDAR containing GluN1 plus GluN2A, GluN2B, GluN2C or GluN2D; test: FLIPR calcium assay, statements for all four NMDAR subtypes together; type: cell-based; details: 6 test item concentrations
From the text: An operational equation for allosteric modulators (Leach K, Sexton P M and Christopoulos A, Allosteric GPCR modulators: taking advantage of permissive receptor pharmacology, Trends Pharmacol. Sci. 28: 382-389, 2007; Kenakin T P, Overview of receptor interaction of agonists and antagonists, Curr. Protoc. Pharmacol. Chapter 4: Unit 4.1, 2008, Kenakin T P, Biased signalling and allosteric machines: new vistas and challenges for drug discovery, Br. J. Pharmacol. 165: 1659-1669, 2012) was created in Prism 8 (GraphPad) software to estimate KB and a parameters for every test item, with the assumption that, as a pore blocker, every test item would be able to produce a compete blockade of agonist response, at sufficiently high concentration: […]

rat brain = details: 75 mg/kg; Hashimoto et al., 1996; cited from earlier work
[6] = molecular target: T5, recombinant human NMDAR GluN1 plus GluN2B (Homo sapiens, UniProt Q05586+Q13224); test: FLIPR calcium assay, gentamicin as PAM (Example 5 Part I), GluN2B cell line; type: cell-based; details: 10 μM test item; dextromethadone in presence and absence of 10 μM gentamicin
T5 construct: expressed in transfected cells; host or cells: CHO
From the text: (§6) A FLIPR calcium assay was used to profile gentamicin using stable cell lines expressing diheteromeric recombinant human NMDARs, containing GluN1 plus one amongst GluN2A, GluN2B, GluN2C or GluN2D subunit.

[7] = molecular target: T1, human NMDA receptor GluN1-GluN2D; test: FLIPR calcium assay, quinolinic acid, gentamicin, dextromethadone (Example 5 Part II), GluN1-GluN2D-CHO; type: cell-based
Method: (§7) Quinolinic acid or gentamicin CRCs were also produced, in presence of 10 μM glycine.
(§8) Test items were evaluated in FLIPR for their ability to modulate, alone or in combination, calcium entry in presence of […], using four CHO cell lines expressing diheteromeric human NMDA receptor (NMDAR): GluN-/GluN2A-CHO, GluN1-GluN2B-CHO, GluN1-GluN2C-CHO, GluN1-GluN2D-CHO.
(§9) The first aim of the study was to evaluate quinolinic acid or gentamicin CRC effect in the presence of 10 μM glycine.
as §1
(§10) 400× compound plate was stored at −20° C. till FLIPR experimental day.
(§11) A 4× compound plate was generated from 400× compound plate by addition of up to 30 μl/well of compound buffer on FLIPR experimental day.
as §4
(§12) Y=Bottom+(Top−Bottom)/(1+10^((LogEC50−X)*HillSlope))
(§13) Test item CRC data were plotted by Prism 8 GraphPad software, in the different experimental conditions. And, column analysis, performed by Prism 8 GraphPad software, was one way ANOVA followed by Tukey's multiple comparisons test, with a single pooled variance.

[8] = molecular target: T6, recombinant human NMDAR GluN1 plus GluN2C (Homo sapiens, UniProt Q05586+Q14957); test: FLIPR calcium assay, gentamicin as PAM (Example 5 Part I), GluN2C cell line; type: cell-based; details: 10 μM test item; dextromethadone in presence and absence of 10 μM gentamicin
T6 construct: expressed in transfected cells; host or cells: CHO
T6 sequence (Q14957 20-1233, other chains not shown): as the sequence (Q14957 20-1233, other chains not shown) above
From the text: as §6

[9] = molecular target: T3, human NMDA receptor GluN1-GluN2B; test: FLIPR calcium assay, quinolinic acid, gentamicin, dextromethadone (Example 5 Part II), GluN1-GluN2B-CHO; type: cell-based
Method: as §7, §8, §9, §1, §10, §11, §4, §12, §13

[10] = molecular target: T7, recombinant human NMDAR GluN1 plus GluN2A (Homo sapiens, UniProt Q05586+Q12879); test: FLIPR calcium assay, gentamicin as PAM (Example 5 Part I), GluN2A cell line; type: cell-based; details: 10 μM test item; dextromethadone in presence and absence of 10 μM gentamicin
T7 construct: expressed in transfected cells; host or cells: CHO
T7 sequence (Q12879 23-1464, other chains not shown): as the sequence (Q12879 23-1464, other chains not shown) above
From the text: as §6

[11] = molecular target: T8, recombinant human NMDAR GluN1 plus GluN2D (Homo sapiens, UniProt O15399+Q05586); test: FLIPR calcium assay, gentamicin as PAM (Example 5 Part I), GluN2D cell line; type: cell-based; details: 10 μM test item; dextromethadone in presence and absence of 10 μM gentamicin
T8 construct: expressed in transfected cells; host or cells: CHO
From the text: as §6

[12] = molecular target: T4, human NMDA receptor GluN1-GluN2A; test: FLIPR calcium assay, quinolinic acid, gentamicin, dextromethadone (Example 5 Part II), GluN1-GluN2A-CHO; type: cell-based; parameters: calcium response (mean±SEM): unit not given here
Method: as §7, §8, §9, §1, §10, §11, §4, §12, §13

[13] = molecular target: T2, human NMDA receptor GluN1-GluN2C; test: FLIPR calcium assay, quinolinic acid, gentamicin, dextromethadone (Example 5 Part II), GluN1-GluN2C-CHO; type: cell-based
Method: as §7, §8, §9, §1, §10, §11, §4, §12, §13

[14] = highest affinity for a NMDAR subtype = 100%
[15] = operational analysis for allosteric modulators
[16] = operational analysis for allosteric modulators, read-out: KB (M), estimated test item equilibrium dissociation constant
[17] = CRC in presence of 10 μM glycine
[18] = CRC in presence of 10 μM glycine, no glutamate
[19] = gentamicin CRC, max 100, 10 μM glycine

## COc1ccc2c(c1)[C@]13CCCC[C@@H]1[C@H](C2)N(C)CC3 [Dextromethorphan, dextromethorphan hydrobromide monohydrate]
[1]; KB Table, absence of extracellular Mg2+, read-out: KB
  Kb: 6.7 µM
[1]; [14]
  % affinity ratio: 18%
[1]; [15]
  α, estimated cooperativity term: 0.34
[1]; with test item 49 nM
  L-glutamate CRC HillSlope: 1.7
  L-glutamate CRC LogEC50: −7.5
[1]; with test item 195 nM
  L-glutamate CRC HillSlope: 1.4
  L-glutamate CRC LogEC50: −7.5
[1]; with test item 781 nM
  L-glutamate CRC HillSlope: 1.7
  L-glutamate CRC LogEC50: −7.4
[1]; with test item 3.1 μM
  L-glutamate CRC HillSlope: 1.9
  L-glutamate CRC LogEC50: −7.3
[1]; with test item 12.5 μM
  L-glutamate CRC HillSlope: 1.7
  L-glutamate CRC LogEC50: −7.1
[1]; with test item 50 μM
  L-glutamate CRC HillSlope: 1.9
  L-glutamate CRC LogEC50: −6.8
[2]; [14]
  % affinity ratio: 100%
[2]; [15]
  α, estimated cooperativity term: 0.24
[2]; [16]
  Kb: 1.2e-06 M
[2]; with test item 49 nM
  L-glutamate CRC HillSlope: 1.3
  L-glutamate CRC LogEC50: −7.0
[2]; with test item 195 nM
  L-glutamate CRC HillSlope: 1.4
  L-glutamate CRC LogEC50: −6.8
[2]; with test item 781 nM
  L-glutamate CRC HillSlope: 1.6
  L-glutamate CRC LogEC50: −6.8
[2]; with test item 3.1 μM
  L-glutamate CRC HillSlope: 1.6
  L-glutamate CRC LogEC50: −6.7
[2]; with test item 12.5 μM
  L-glutamate CRC HillSlope: 1.5
  L-glutamate CRC LogEC50: −6.7
[2]; with test item 50 μM
  L-glutamate CRC HillSlope: 3.0
  L-glutamate CRC LogEC50: −6.8
[3]; [14]
  % affinity ratio: 63%
[3]; [15]
  α, estimated cooperativity term: 0.13
[3]; [16]
  Kb: 1.9e-06 M
[3]; with test item 49 nM
  L-glutamate CRC HillSlope: 1.2
  L-glutamate CRC LogEC50: −6.7
[3]; with test item 195 nM
  L-glutamate CRC HillSlope: 1.1
  L-glutamate CRC LogEC50: −6.7
[3]; with test item 781 nM
  L-glutamate CRC HillSlope: 1.3
  L-glutamate CRC LogEC50: −6.6
[3]; with test item 3.1 μM
  L-glutamate CRC HillSlope: 1.3
  L-glutamate CRC LogEC50: −6.7
[3]; with test item 12.5 μM
  L-glutamate CRC HillSlope: 1.2
  L-glutamate CRC LogEC50: −6.7
[3]; with test item 50 μM
  L-glutamate CRC HillSlope: 0.83
  L-glutamate CRC LogEC50: −6.2
[4]; [14]
  % affinity ratio: 13%
[4]; [15]
  α, estimated cooperativity term: 0.25
[4]; [16]
  Kb: 9.6e-06 M
[4]; with test item 49 nM
  L-glutamate CRC HillSlope: 1.0
  L-glutamate CRC LogEC50: −6.6
[4]; with test item 195 nM
  L-glutamate CRC HillSlope: 1.2
  L-glutamate CRC LogEC50: −6.6
[4]; with test item 781 nM
  L-glutamate CRC HillSlope: 1.3
  L-glutamate CRC LogEC50: −6.4
[4]; with test item 3.1 μM
  L-glutamate CRC HillSlope: 1.3
  L-glutamate CRC LogEC50: −6.5
[4]; with test item 12.5 μM
  L-glutamate CRC HillSlope: 1.1
  L-glutamate CRC LogEC50: −6.4
[4]; with test item 50 μM
  L-glutamate CRC HillSlope: 1.3
  L-glutamate CRC LogEC50: −6.2
[5]
  profile on L-glutamate CRC: insurmountable profile
Rat brain
  vacuolization in rats' brains: cause vacuolization

## Gentamicin sulfate
[6]
  calcium entry induced by 0.04 μM L-glutamate: significantly increased
  calcium entry induced by 0.2 μM L-glutamate: significantly increased
  calcium entry induced by 10 μM L-glutamate: did not modify
[7]; 10 μM glycine
  EC50: >100 µg/mL
[7]; 1000 μM QA + 10 μg/ml GENT, 10 μM glycine, GluN2D, n=42
  calcium response (mean±SEM): 53 ± 1.7
[7]; [17]
  Minimal response (%): −3.2%
[7]; [18]
  pEC50: <4
[7]; [19]
  Response at max conc (%): 1.0%
[8]
  calcium entry induced by 0.04 μM L-glutamate: significantly increased
  calcium entry induced by 10 μM L-glutamate: significantly decreased
[9]; 10 μM glycine
  EC50: >100 µg/mL
[9]; 1000 μM QA + 10 μg/ml GENT, 10 μM glycine, GluN2B, n=42
  calcium response (mean±SEM): 37 ± 1.4
[9]; [17]
  Minimal response (%): −3.7%
[9]; [18]
  pEC50: <4
[9]; [19]
  Response at max conc (%): 0.7%
[10]
  calcium entry induced by 0.04 μM L-glutamate: significantly increased
  calcium entry induced by 0.2 μM L-glutamate: significantly increased
  calcium entry induced by 10 μM L-glutamate: significantly decreased
[11]
  calcium entry induced by 0.04 μM L-glutamate: significantly increased
  calcium entry induced by 0.2 μM L-glutamate: decreased calcium entry
  calcium entry induced by 10 μM L-glutamate: did not modify
[12]; 10 μM glycine
  EC50: >100 µg/mL
[12]; 10 μg/ml gentamicin, 10 μM glycine
  % effect on calcium entry, 1000 μM quinolinic acid plus gentamicin: 47±1.1%
[12]; 1000 μM QA + 10 μg/ml GENT, 10 μM glycine, GluN2A, n=42
  calcium response (mean±SEM): 47 ± 1.1
[12]; [17]
  Minimal response (%): −3.3%
[12]; [18]
  pEC50: <4
[12]; [19]
  Response at max conc (%): 0.1%
[13]; 10 μM glycine
  EC50: >100 µg/mL
[13]; 1000 μM QA + 10 μg/ml GENT, 10 μM glycine, GluN2C, n=42
  calcium response (mean±SEM): 5.6 ± 0.4
[13]; [17]
  Minimal response (%): −8.2%
[13]; [18]
  pEC50: <4
[13]; [19]
  Response at max conc (%): 0.03%
